By IC50 is commonly meant the concentration at which inhibition is half-maximal. A low value points to inhibition by little substance.

This is an account of results in patent US12344597B2, “Alkoxy-substituted pyridinyl derivatives as LPA1 receptor antagonists and their use in the treatment of fibrosis” (IDORSIA PHARMACEUTICALS LTD, priority 2018, dated 2025).

The assay addresses human LPA1 receptor (Homo sapiens (Human), UniProt Q92633). Description: Beta-arrestin recruitment assay to determine IC50 values for human LPAR1. Format: cell-based. The following applies: antagonist mode, Tango EDG2-bla U2OS cells, LPA 18:1 500 nM final. In outline: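 Tango EDG2-bla U2OS cells: LPA-driven beta-arrestin/TEV protease recruitment releases Gal4-VP16, inducing beta-lactamase reporter read with live-cell substrate. Cells seeded 20 h at 37 °C beforehand. IC50 is antagonist concentration inhibiting 50% of maximal response.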

Chain of human LPA1 receptor (Q92633 whole entry, the tested form may be a part): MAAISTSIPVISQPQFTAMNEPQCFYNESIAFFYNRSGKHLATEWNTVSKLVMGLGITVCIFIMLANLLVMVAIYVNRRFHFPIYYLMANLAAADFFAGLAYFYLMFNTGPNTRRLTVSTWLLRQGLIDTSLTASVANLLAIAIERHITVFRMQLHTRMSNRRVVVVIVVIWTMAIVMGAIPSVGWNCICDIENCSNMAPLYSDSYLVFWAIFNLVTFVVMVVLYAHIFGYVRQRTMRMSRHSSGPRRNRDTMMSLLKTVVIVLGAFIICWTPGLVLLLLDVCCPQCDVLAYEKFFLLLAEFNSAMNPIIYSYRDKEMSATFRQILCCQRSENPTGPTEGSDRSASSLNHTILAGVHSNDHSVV

In the case of `COC(=O)C(C)(C)CNC(=O)N1CC(C(=O)Nc2ccc(C)nc2OC(F)F)(c2ccccc2C(C)C)C1` [Ex 17-16, methyl 3-(3-((2-(difluoromethoxy)-6-methylpyridin-3-yl)carbamoyl)-3-(2-isopropylphenyl)azetidine-1-carboxamido)-2,2-dimethylpropanoate], inhibition was half-maximal at 9 nM (IC50). This counts as single-digit nanomolar.

For the compound `Cc1ccc(NC(=O)C2(c3ccccc3C(C)C)CN(C(=O)NCC(C)(C)C(=O)O)C2)c(OC(F)F)n1` [Ex 17-17, 3-(3-((2-(difluoromethoxy)-6-methylpyridin-3-yl)carbamoyl)-3-(2-isopropylphenyl)azetidine-1-carboxamido)-2,2-dimethylpropanoic acid], the half-inhibitory concentration (IC50) came out at 12 nM.

On to `COC(=O)C(C)(C)CCNC(=O)N1CC(C(=O)Nc2ccc(C)nc2OC(F)F)(c2ccccc2C(C)C)C1` [Ex 17-18, methyl 4-(3-((2-(difluoromethoxy)-6-methylpyridin-3-yl)carbamoyl)-3-(2-isopropylphenyl)azetidine-1-carboxamido)-2,2-dimethylbutanoate], for which the IC50 was determined as 6 nM.

The compound `Cc1ccc(NC(=O)C2(c3ccccc3C(C)C)CN(C(=O)NCCC(C)(C)C(=O)O)C2)c(OC(F)F)n1` [Ex 17-19, 4-(3-((2-(difluoromethoxy)-6-methylpyridin-3-yl)carbamoyl)-3-(2-isopropylphenyl)azetidine-1-carboxamido)-2,2-dimethylbutanoic acid] yielded a concentration for half-maximal inhibition (IC50) of 7 nM. The IC50 values of the last two compounds are within 1.5-fold of each other.

`Cc1ccc(NC(=O)C2(c3ccccc3C(C)C)CCN(C(N)=O)CC2)c(OC(F)F)n1` [Ex 17-20, N4-(2-(difluoromethoxy)-6-methylpyridin-3-yl)-4-(2-isopropylphenyl)piperidine-1,4-dicarboxamide] showed a half-inhibitory concentration (IC50) of 11 nM.

Compound `C=C(C)C(=O)OCCNC(=O)N1CCC(C(=O)Nc2ccc(C)nc2OC(F)F)(c2ccccc2C(C)C)CC1` [Ex 17-21, 2-(4-((2-(difluoromethoxy)-6-methylpyridin-3-yl)carbamoyl)-4-(2-isopropylphenyl)piperidine-1-carboxamido)ethyl methacrylate] gave an IC50 of 5 nM.

Turning to `Cc1ccc(NC(=O)C2(c3ccccc3C(C)C)CCN(C(=O)NCCO)CC2)c(OC(F)F)n1` [Ex 17-22, N4-(2-(difluoromethoxy)-6-methylpyridin-3-yl)-N1-(2-hydroxyethyl)-4-(2-isopropylphenyl)piperidine-1,4-dicarboxamide], the IC50 came to 9 nM.

`COC(=O)[C@@H](C)NC(=O)N1CC(C(=O)Nc2ccc(C)nc2OC(F)F)(c2ccccc2C(C)C)C1` [Ex 17-23, methyl (3-((2-(difluoromethoxy)-6-methylpyridin-3-yl)carbamoyl)-3-(2-isopropylphenyl)azetidine-1-carbonyl)-D-alaninate]: the half-maximal inhibitory concentration (IC50) stood at 5 nM.

`Cc1ccc(NC(=O)C2(c3ccccc3C(C)C)CN(C(=O)N[C@H](C)C(=O)O)C2)c(OC(F)F)n1` [Ex 17-24, (3-((2-(difluoromethoxy)-6-methylpyridin-3-yl)carbamoyl)-3-(2-isopropylphenyl)azetidine-1-carbonyl)-D-alanine] registered an IC50 of 86 nM.

`Cc1ccc(NC(=O)C2(c3ccccc3C(C)C)CN(C(=O)N3CCNCC3)C2)c(OC(F)F)n1` [Ex 17-25, N-(2-(difluoromethoxy)-6-methylpyridin-3-yl)-3-(2-isopropylphenyl)-1-(piperazine-1-carbonyl)azetidine-3-carboxamide] yielded an IC50 of 270 nM.

Turning to `Cc1ccc(NC(=O)C2(c3ccccc3C(C)C)CN(C(=O)N3CCN(C)CC3)C2)c(OC(F)F)n1` [Ex 17-26, N-(2-(difluoromethoxy)-6-methylpyridin-3-yl)-3-(2-isopropylphenyl)-1-(4-methylpiperazine-1-carbonyl)azetidine-3-carboxamide], 240 nM corresponded to half-maximal inhibition (IC50).

As to `Cc1ccc(NC(=O)C2(c3ccccc3C(C)C)CN(C(=O)N3CCOCC3)C2)c(OC(F)F)n1` [Ex 17-27, N-(2-(difluoromethoxy)-6-methylpyridin-3-yl)-3-(2-isopropylphenyl)-1-(morpholine-4-carbonyl)azetidine-3-carboxamide], it took 210 nM to reach half-maximal inhibition (IC50).

As to `COC(=O)c1ccc(N2CC(C(=O)Nc3ccc(C)nc3OC(F)F)(c3ccccc3C(C)C)C2)nc1` [Ex 18-1, Methyl 6-(3-((2-(difluoromethoxy)-6-methylpyridin-3-yl)carbamoyl)-3-(2-isopropylphenyl)azetidin-1-yl)nicotinate], the IC50 worked out at 16 nM.

With `Cc1ccc(NC(=O)C2(c3ccccc3C(C)C)CN(c3ccc(C(=O)O)cn3)C2)c(OC(F)F)n1` [Ex 18-2, 6-(3-((2-(difluoromethoxy)-6-methylpyridin-3-yl)carbamoyl)-3-(2-isopropylphenyl)azetidin-1-yl)nicotinic acid], the IC50 stood at 6 nM.

`Cc1ccc(NC(=O)C2(c3ccccc3C(C)C)CN(c3cccc(C(=O)O)n3)C2)c(OC(F)F)n1` [Ex 18-3, 6-(3-((2-(difluoromethoxy)-6-methylpyridin-3-yl)carbamoyl)-3-(2-isopropylphenyl)azetidin-1-yl)picolinic acid] had an IC50 of 7 nM.

`COC(=O)c1cnc(N2CC(C(=O)Nc3ccc(C)nc3OC(F)F)(c3ccccc3C(C)C)C2)nc1` [Ex 18-4, methyl 2-(3-((2-(difluoromethoxy)-6-methylpyridin-3-yl)carbamoyl)-3-(2-isopropylphenyl)azetidin-1-yl)pyrimidine-5-carboxylate] registered a 50% inhibitory concentration (IC50) of 31 nM.

`Cc1ccc(NC(=O)C2(c3ccccc3C(C)C)CN(c3ncc(C(=O)O)cn3)C2)c(OC(F)F)n1` [Ex 18-5, 2-(3-((2-(difluoromethoxy)-6-methylpyridin-3-yl)carbamoyl)-3-(2-isopropylphenyl)azetidin-1-yl)pyrimidine-5-carboxylic acid] came in with a half-maximal inhibitory concentration (IC50) of 11 nM. This IC50 is about 2.8-fold lower than that of the compound before.

`COC(=O)c1ccc(N2CC(C(=O)Nc3ccc(C)nc3OC(F)F)(c3ccccc3C(C)C)C2)nn1` [Ex 18-6, methyl 6-(3-((2-(difluoromethoxy)-6-methylpyridin-3-yl)carbamoyl)-3-(2-isopropylphenyl)azetidin-1-yl)pyridazine-3-carboxylate] returned a half-inhibitory concentration (IC50) of 10 nM.

`Cc1ccc(NC(=O)C2(c3ccccc3C(C)C)CN(c3ccc(C(=O)O)nn3)C2)c(OC(F)F)n1` [Ex 18-7, 6-(3-((2-(difluoromethoxy)-6-methylpyridin-3-yl)carbamoyl)-3-(2-isopropylphenyl)azetidin-1-yl)pyridazine-3-carboxylic acid] yielded an IC50 of 12 nM.

`COC(=O)c1cnc(N2CC(C(=O)Nc3ccc(C)nc3OC(F)F)(c3ccccc3C(C)C)C2)cn1` [Ex 18-8, methyl 5-(3-((2-(difluoromethoxy)-6-methylpyridin-3-yl)carbamoyl)-3-(2-isopropylphenyl)azetidin-1-yl)pyrazine-2-carboxylate] yielded an IC50 of 10 nM.

Take `Cc1ccc(NC(=O)C2(c3ccccc3C(C)C)CN(c3cnc(C(=O)O)cn3)C2)c(OC(F)F)n1` [Ex 18-9, 5-(3-((2-(difluoromethoxy)-6-methylpyridin-3-yl)carbamoyl)-3-(2-isopropylphenyl)azetidin-1-yl)pyrazine-2-carboxylic acid]: the IC50 is 11 nM.

Regarding `CCOC(=O)c1nccc(N2CC(C(=O)Nc3ccc(C)nc3OC(F)F)(c3ccccc3C(C)C)C2)n1` [Ex 18-10, ethyl 4-(3-((2-(difluoromethoxy)-6-methylpyridin-3-yl)carbamoyl)-3-(2-isopropylphenyl)azetidin-1-yl)pyrimidine-2-carboxylate], the IC50 was 120 nM.

The compound `Cc1ccc(NC(=O)C2(c3ccccc3C(C)C)CN(c3ccnc(C(=O)O)n3)C2)c(OC(F)F)n1` [Ex 18-11, 4-(3-((2-(difluoromethoxy)-6-methylpyridin-3-yl)carbamoyl)-3-(2-isopropylphenyl)azetidin-1-yl)pyrimidine-2-carboxylic acid] displayed an IC50 of 34 nM.

Turning to `COC(=O)c1cc(N2CC(C(=O)Nc3ccc(C)nc3OC(F)F)(c3ccccc3C(C)C)C2)ncn1` [Ex 18-12, methyl 6-(3-((2-(difluoromethoxy)-6-methylpyridin-3-yl)carbamoyl)-3-(2-isopropylphenyl)azetidin-1-yl)pyrimidine-4-carboxylate], inhibition was half-maximal at 11 nM (IC50). Against the preceding compound, the IC50 is about 3.1-fold lower.

As to `Cc1ccc(NC(=O)C2(c3ccccc3C(C)C)CN(c3cc(C(=O)O)ncn3)C2)c(OC(F)F)n1` [Ex 18-13, 6-(3-((2-(difluoromethoxy)-6-methylpyridin-3-yl)carbamoyl)-3-(2-isopropylphenyl)azetidin-1-yl)pyrimidine-4-carboxylic acid], it took 17 nM to reach half-maximal inhibition (IC50). Against the preceding compound, the IC50 is about 1.5-fold higher.

As for `CCOC(=O)c1ccnc(N2CC(C(=O)Nc3ccc(C)nc3OC(F)F)(c3ccccc3C(C)C)C2)n1` [Ex 18-14, ethyl 2-(3-((2-(difluoromethoxy)-6-methylpyridin-3-yl)carbamoyl)-3-(2-isopropylphenyl)azetidin-1-yl)pyrimidine-4-carboxylate], 560 nM corresponded to half-maximal inhibition (IC50).

For `Cc1ccc(NC(=O)C2(c3ccccc3C(C)C)CN(c3nccc(C(=O)O)n3)C2)c(OC(F)F)n1` [Ex 18-15, 2-(3-((2-(difluoromethoxy)-6-methylpyridin-3-yl)carbamoyl)-3-(2-isopropylphenyl)azetidin-1-yl)pyrimidine-4-carboxylic acid], the IC50 was found to be 47 nM.

Compound `COC(=O)C1(c2ncc(N3CC(C(=O)Nc4ccc(C)nc4OC(F)F)(c4ccccc4C(C)C)C3)cn2)CC1` [Ex 18-16, methyl 1-(5-(3-((2-(difluoromethoxy)-6-methylpyridin-3-yl)carbamoyl)-3-(2-isopropylphenyl)azetidin-1-yl)pyrimidin-2-yl)cyclopropane-1-carboxylate] displayed an IC50 of 2 nM. Against the preceding compound, the IC50 is about 24-fold lower.

Regarding `Cc1ccc(NC(=O)C2(c3ccccc3C(C)C)CN(c3cnc(C4(C(=O)O)CC4)nc3)C2)c(OC(F)F)n1` [Ex 18-17, 1-(5-(3-((2-(difluoromethoxy)-6-methylpyridin-3-yl)carbamoyl)-3-(2-isopropylphenyl)azetidin-1-yl)pyrimidin-2-yl)cyclopropane-1-carboxylic acid], half-maximal inhibition (IC50) was put at 8 nM.
